Values joined by “and” are separate entries in the source; they are usually repeats but may differ in a detail not shown here. Equal entries are not always repeated.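 Dose response: 5 concentrations. Exposure: 48 h. Format: 96-well plates. Endpoint: linear interpolation; highest concentration if not reached. GI50 = concentration required for 50% inhibition of growth. TGI is the concentration that stops growth completely.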

Test systems include M19-MEL melanoma; MOLT-4 leukemia; NCI/ADR-RES ovarian; OVCAR-8 ovarian; RXF 393 renal; EKVX NSCLC; HOP-62 NSCLC; M14 melanoma; SK-MEL-5 melanoma.
What all share (experiment): NCI anticancer screen, dose series, 48 h

`S=P(N1CC1)(N1CC1)N1CC1`: the GI50 is 25.7 µM in the assay with M19-MEL melanoma; 1.27 µM with MOLT-4 leukemia; 53.8 µM in the assay on NCI/ADR-RES ovarian; 20.1 µM and 93.7 µM with OVCAR-8 ovarian; 18.8 µM with RXF 393 renal. The TGI with M19-MEL melanoma was 63 µM and 438 µM; in the assay with MOLT-4 leukemia, 53.4 µM and 334 µM and 54.9 µM; in the assay on NCI/ADR-RES ovarian, 511 µM and 225 µM; with OVCAR-8 ovarian, 58.5 µM and 523 µM and 323 µM; in the assay on RXF 393 renal it was 39.6 µM and 251 µM and 308 µM.
`C=C(c1ccccc1)[C@@]1(O)CC[C@@H]1N(CC#N)Cc1ccccc1`: the TGI with EKVX NSCLC was over 88.9 µM; with HOP-62 NSCLC, over 100 µM; with M14 melanoma, 32.6 µM; with M19-MEL melanoma it was 57.1 µM; in the assay on MOLT-4 leukemia it was 69.2 µM; in the assay on NCI/ADR-RES ovarian, 43.8 µM. The values for the TGI in the assay on OVCAR-8 ovarian, in the assay with RXF 393 renal and in the assay with SK-MEL-5 melanoma were 52.3 µM, 34.6 µM and 31.8 µM, respectively.
For the compound `CC(C)CC(NC(=O)OC(C)(C)C)C(=O)Nc1ccc(Nc2nc(F)nc(-c3c4ccccc4cn3C)n2)cc1` (stereo not drawn), the TGI was over 81.1 µM with EKVX NSCLC; 42.6 µM in the assay with HOP-62 NSCLC; over 100 µM in the assay on M14 melanoma; over 100 µM in the assay on M19-MEL melanoma; over 100 µM in the assay with MOLT-4 leukemia; over 100 µM in the assay on NCI/ADR-RES ovarian. Moreover, the TGI was over 100 µM with OVCAR-8 ovarian, over 87.1 µM in the assay on RXF 393 renal and over 100 µM in the assay with SK-MEL-5 melanoma.
With `NCCCNCCCCNC(=O)C(O)NC(=O)CCCCCCN=C(N)N` (stereo not drawn), the GI50 was 4980 µM in the assay on EKVX NSCLC; 3470 µM in the assay with HOP-62 NSCLC; 2450 µM in the assay on M14 melanoma; 1620 µM in the assay with MOLT-4 leukemia; 2190 µM with NCI/ADR-RES ovarian; 2440 µM in the assay with OVCAR-8 ovarian. The GI50 was 3480 µM with RXF 393 renal and 1730 µM in the assay with SK-MEL-5 melanoma. In addition, the TGI in the assay with EKVX NSCLC is 742 µM and > 5000 µM; in the assay with HOP-62 NSCLC it was 750 µM and > 5000 µM; in the assay with M14 melanoma it was over 3810 µM; in the assay with M19-MEL melanoma, 750 µM; in the assay on MOLT-4 leukemia it was 750 µM and > 4510 µM; in the assay on NCI/ADR-RES ovarian, over 5000 µM. Moreover, the TGI with OVCAR-8 ovarian is 750 µM and > 5000 µM; in the assay on RXF 393 renal, 750 µM and > 5000 µM; in the assay on SK-MEL-5 melanoma it was > 750 µM and 2820 µM.
For `Cc1cc(C)c(-n2c(-c3ccc(Br)cc3)cs/c2=N\N=C2C=C(C(C)(C)C)C(=O)C(C(C)(C)C)=C2)c(C)c1`, the TGI was over 100 µM with EKVX NSCLC; over 78.6 µM in the assay with HOP-62 NSCLC; over 100 µM in the assay on M14 melanoma; over 100 µM in the assay on M19-MEL melanoma; over 100 µM in the assay with MOLT-4 leukemia; over 100 µM with NCI/ADR-RES ovarian. For the same compound, the TGI in the assay with OVCAR-8 ovarian was over 100 µM; in the assay on RXF 393 renal, 81.8 µM; in the assay on SK-MEL-5 melanoma, over 100 µM.
With `Cc1cccc(NC(=O)c2cccc([N+](=O)[O-])c2O)c1C`, the TGI in the assay on EKVX NSCLC was over 100 µM; with HOP-62 NSCLC, 52.4 µM; in the assay on M14 melanoma it was over 100 µM; in the assay with M19-MEL melanoma, 79.1 µM; with MOLT-4 leukemia, over 92.7 µM; with NCI/ADR-RES ovarian, over 100 µM. In addition, the figures for the TGI with OVCAR-8 ovarian, in the assay on RXF 393 renal and in the assay on SK-MEL-5 melanoma were over 100 µM, 53.6 µM and 27.6 µM, respectively.
